Measured values: US20260240832A1, “USE OF NITROXOLINE COMPOUND IN ENHANCING EFFECT OF ANTIBACTERIAL AGENT” (Jiangsu Yahong Meditech Co., Ltd., priority 2022, published 2026)
Like-named read-outs stand apart in the source and are kept apart here.

Assays:
Assay type in all cases: cell-based
[1] = tested on: drug-resistant Escherichia coli 1864; assay: MIC of antibiotics against drug-resistant Escherichia coli II (resistance profile of the strain)
From the text: (§1) 1 strain of drug-resistant Escherichia coli II, namely drug-resistant Escherichia coli 1864, is provided by the School of Pharmacy of Fudan University. This strain is resistant to fluoroquinolone antibiotics (such as levofloxacin), non-fluoroquinolone antibiotics (such as nalidixic acid, nemofloxacin), aminoglycoside antibiotics (such as gentamicin), glycopeptide antibiotics (such as vancomycin) and carbapenem antibiotics (such as meropenem).

[2] = tested on: drug-resistant Escherichia coli II (drug-resistant Escherichia coli 1864); assay: Chessboard microbroth dilution MIC/FIC, compound A in combination with meropenem
From the text: (§2) This experiment is designed to determine the minimum inhibitory concentration (MIC) of compound A in combination with meropenem against drug-resistant Escherichia coli I (a strain resistant to carbapenem antibiotics) and drug-resistant Escherichia coli II (a strain resistant to fluoroquinolone antibiotics, non-fluoroquinolone antibiotics, aminoglycoside antibiotics, glycopeptide antibiotics and carbapenem antibiotics), and to calculate the fractional inhibitory concentration (FIC) index.
as §1
(§3) According to the recommendation of the Clinical and Laboratory Standards Institute (CLSI), the microbroth dilution method designed by the chessboard method was used to determine the minimum inhibitory concentration (MIC) of compound A in combination with meropenem against the above strains, and the fractional inhibitory concentration (FIC) index was calculated.
(§4) Compound A was dissolved in dimethyl sulfoxide to obtain a stock solution I with a concentration of 1280 mg/L. The stock solution I was diluted to 512 mg/L with sterile water to obtain a gradient dilution first tube solution I. The gradient dilution first tube solution I was subjected to 1:1 gradient dilution with sterile water to obtain a working solution I with a gradient range of 512 to 0.25 mg/L.
(§5) Meropenem was dissolved in sterile water to obtain a stock solution II with a concentration of 5120 mg/L. The stock solution II was diluted to 1024 mg/L with sterile water to obtain a gradient dilution first tube solution II. The gradient dilution first tube solution II was subjected to 1:1 gradient dilution with sterile water to obtain a working solution II with a gradient range of 1024 to 0.5 mg/L.
(§6) According to the method in Example 1, a drug sensitive plate was prepared with working solution I and working solution II, and the specific process will not be repeated here.
(§7) (2) The culture medium of the bacterial solution: Cation-Adjusted Mueller-Hinton Broth (CAMHB), a product of BBL, USA, batch number 9015952.
(§8) (3) Formulation method of bacterial solution: According to the direct colony suspension method, the test bacteria cultured overnight were prepared into a 0.5 McFarland turbidity tube using physiological saline. Then, the resulting solution was dilute 100 times with the above culture medium. 100 μL of the resulting bacterial solution was mixed well with the solution (100 μL) in each well of the drug sensitivity plate, and the final inoculation amount was 10^5 CFU/mL.
(§9) (4) Culture conditions: Culturing at 35±2° C. for 20 hours in air.
(§10) (1) The experimental results were determined according to the standard of CLSI 2019 M100 29th edition.
(§11) wherein: FIC≤0.5 indicates synergistic effect; 0.5<FIC≤1.0 indicates additive effect; 1<FIC≤2.0 indicates irrelevant effect; and FIC>2 indicates antagonistic effect.

[3] = tested on: carbapenem-resistant Acinetobacter baumannii; assay: as above; conditions: for MIC: Acinetobacter baumannii, read-out: Compound A MIC alone; for Compound A MIC in combination: with meropenem
From the text: This experiment is designed to determine the minimum inhibitory concentration (MIC) of compound A in combination with meropenem against carbapenem-resistant Acinetobacter baumannii and to calculate the fractional inhibitory concentration (FIC) index.
Test bacteria: 10 strains of carbapenem-resistant Acinetobacter baumannii are clinically isolated strains, and are provided by Shanghai Junji Medical Laboratory Co., Ltd.
as §3
Compound A was dissolved in dimethyl sulfoxide to obtain a stock solution I with a concentration of 51200 mg/L. The stock solution I was subjected to 1:1 gradient dilution with dimethyl sulfoxide to obtain a dilution solution with a concentration range of 51200 to 25 mg/L. The corresponding concentrations were added to sterile water for 100-fold dilution to obtain working solution I with a concentration range of 512 to 0.25 mg/L.
Meropenem was dissolved in sterile water to obtain a stock solution with a concentration of 5120 mg/L. The […] stock solution was subjected to 1:1 gradient dilution with sterile water to obtain a working solution II with a concentration range of 512 to 0.25 mg/L.
as §6, §7, §8, §9
(1) The experimental results were determined according to the standard of CLSI 2020 M100 30th edition.
as §11

[4] = tested on: drug-resistant Escherichia coli I (a strain resistant to carbapenem antibiotics); assay: as above; conditions: for MIC: Escherichia coli, read-out: Compound A MIC alone; for Compound A MIC in combination: with meropenem
From the text: as §2
3 strains of drug-resistant Escherichia coli I, namely drug-resistant Escherichia coli 18-W09-093, drug-resistant Escherichia coli 18-W37-025, and drug-resistant Escherichia coli 18-W37-032, are provided by Shanghai Junji Medical Laboratory Co., Ltd. These 3 strains are all resistant to carbapenem antibiotics (e.g., meropenem).
as §3, §4, §5, §6, §7, §8, §9, §10, §11

[5] = strain 1864, compound A + meropenem
[6] = strain No. 1, compound A + meropenem
[7] = strain No. 2, compound A + meropenem
[8] = strain No. 3, compound A + meropenem
[9] = strain No. 4, compound A + meropenem
[10] = strain No. 5, compound A + meropenem
[11] = strain No. 6, compound A + meropenem
[12] = strain No. 7, compound A + meropenem
[13] = strain No. 8, compound A + meropenem
[14] = strain No. 9, compound A + meropenem
[15] = strain No. 10, compound A + meropenem
[16] = strain 18-W09-093, compound A + meropenem
[17] = strain 18-W37-025, compound A + meropenem
[18] = strain 18-W37-032, compound A + meropenem
[19] = drug-resistant Escherichia coli 1864, read-out: MIC

## CN[C@H](CC(C)C)C(=O)N[C@H]1C(=O)N[C@@H](CC(N)=O)C(=O)N[C@H]2C(=O)N[C@H]3C(=O)N[C@H](C(=O)N[C@H](C(=O)O)c4cc(O)cc(O)c4-c4cc3ccc4O)[C@H](O)c3ccc(c(Cl)c3)Oc3cc2cc(c3O[C@@H]2O[C@H](CO)[C@@H](O)[C@H](O)[C@H]2O[C@H]2C[C@](C)(N)[C@H](O)[C@H](C)O2)Oc2ccc(cc2Cl)[C@H]1O [Vancomycin]
[1]; Escherichia coli
  MIC: > 64 µg/mL

## O=[N+]([O-])c1cc(Cl)c2cccnc2c1O [Compound A, 5-chloro-7-nitro-8-hydroxyquinoline]
[2]; Escherichia coli, strain 1864, read-out: Compound A MIC alone
  MIC: 4 µg/mL
[2]; compound A + meropenem, drug-resistant Escherichia coli II
  effect of the combination (summary of Table 4): synergistic effect (FIC≤0.5 indicates synergistic effect)
[2]; [5]
  FIC index: 0.14
  Results: Synergistic
[2]; strain 1864, with meropenem
  Compound A MIC in combination: 0.5 µg/mL
[3]; strain No. 1
  MIC: 32 µg/mL
  Compound A MIC in combination: 0.06 µg/mL
[3]; strain No. 2
  MIC: 16 µg/mL
  Compound A MIC in combination: 0.06 µg/mL
[3]; strain No. 3
  MIC: 16 µg/mL
  Compound A MIC in combination: 0.06 µg/mL
[3]; strain No. 4
  MIC: 16 µg/mL
  Compound A MIC in combination: 0.06 µg/mL
[3]; strain No. 5
  MIC: 16 µg/mL
  Compound A MIC in combination: 0.06 µg/mL
[3]; strain No. 6
  MIC: 16 µg/mL
  Compound A MIC in combination: 0.06 µg/mL
[3]; strain No. 7
  MIC: 16 µg/mL
  Compound A MIC in combination: 0.06 µg/mL
[3]; strain No. 8
  MIC: 8 µg/mL
  Compound A MIC in combination: 0.06 µg/mL
[3]; strain No. 9
  MIC: 8 µg/mL
  Compound A MIC in combination: 0.06 µg/mL
[3]; strain No. 10
  MIC: 16 µg/mL
  Compound A MIC in combination: 0.06 µg/mL
[3]; compound A + meropenem
  change of the MIC of meropenem by the combination: significantly reduce
  effect of the combination (summary of Table 5): synergistic effect (FIC≤0.5 indicates synergistic effect)
[3]; [6]
  FIC index: 0.127
  Results: Synergistic
[3]; [7]
  FIC index: 0.129
  Results: Synergistic
[3]; [8]
  FIC index: 0.129
  Results: Synergistic
[3]; [9]
  FIC index: 0.129
  Results: Synergistic
[3]; [10]
  FIC index: 0.129
  Results: Synergistic
[3]; [11]
  FIC index: 0.129
  Results: Synergistic
[3]; [12]
  FIC index: 0.254
  Results: Synergistic
[3]; [13]
  FIC index: 0.133
  Results: Synergistic
[3]; [14]
  FIC index: 0.133
  Results: Synergistic
[3]; [15]
  FIC index: 0.129
  Results: Synergistic
[4]; strain 18-W09-093
  MIC: 32 µg/mL
  Compound A MIC in combination: 8 µg/mL
[4]; strain 18-W37-025
  MIC: 32 µg/mL
  Compound A MIC in combination: 8 µg/mL
[4]; strain 18-W37-032
  MIC: 32 µg/mL
  Compound A MIC in combination: 8 µg/mL
[4]; compound A + meropenem, drug-resistant Escherichia coli I
  effect of the combination (summary of Table 4): synergistic effect (FIC≤0.5 indicates synergistic effect)
[4]; compound A + meropenem, drug-resistant Escherichia coli I and II
  change of the MIC of meropenem by the combination: significantly reduce
[4]; [16]
  FIC index: 0.258
  Results: Synergistic
[4]; [17]
  FIC index: 0.258
  Results: Synergistic
[4]; [18]
  FIC index: 0.281
  Results: Synergistic

## C[C@H]1COc2c(N3CCN(C)CC3)c(F)cc3c(=O)c(C(=O)O)cn1c23 [Levofloxacin]
[1]; [19]
  MIC: 32 µg/mL

## CCn1cc(C(=O)O)c(=O)c2ccc(C)nc21 [Nalidixic acid]
[1]; Escherichia coli
  MIC: > 64 µg/mL

## COc1c(N2C[C@@H](C)C[C@H](N)C2)ccc2c(=O)c(C(=O)O)cn(C3CC3)c12 [Nemofloxacin]
[1]; [19]
  MIC: > 64 µg/mL

## Gentamycin
[1]; drug-resistant Escherichia coli 1864
  MIC: 64 µg/mL
